O=C(O)Cc1ccccc1Cl
solubility (mole fraction)
Conditions | 273.15 K | 278.15 K | 283.15 K | 288.15 K | 293.15 K | 298.15 K | 303.15 K | 308.15 K | 313.15 K | 318.15 K
in 2-butanone | 0.254 | 0.282 | 0.315 | 0.351 | 0.389 | 0.426 | 0.462 | 0.496 | 0.528 | 0.567
in acetone | 0.209 | 0.225 | 0.242 | 0.261 | 0.281 | 0.303 | 0.326 | 0.352 | 0.38 | 0.412
in acetonitrile | 0.0582 | 0.0738 | 0.0925 | 0.114 | 0.139 | 0.168 | 0.199 | 0.234 | 0.272 | 0.314
in cyclohexane | – | – | 0.00197 | 0.00263 | 0.00346 | 0.00454 | 0.00601 | 0.00799 | 0.0107 | 0.0145
in ethyl acetate | 0.175 | 0.193 | 0.214 | 0.237 | 0.258 | 0.284 | 0.312 | 0.342 | 0.372 | 0.407
in ethylbenzene | 0.0217 | 0.0278 | 0.0348 | 0.0437 | 0.0542 | 0.0678 | 0.0853 | 0.106 | 0.132 | 0.165
in isobutanol | 0.15 | 0.172 | 0.199 | 0.226 | 0.256 | 0.288 | 0.322 | 0.357 | 0.394 | 0.433
in isopropanol | 0.18 | 0.206 | 0.235 | 0.266 | 0.298 | 0.336 | 0.369 | 0.407 | 0.446 | 0.486
in n-butanol | 0.142 | 0.164 | 0.19 | 0.217 | 0.247 | 0.28 | 0.314 | 0.349 | 0.387 | 0.425
in n-propanol | 0.16 | 0.184 | 0.21 | 0.237 | 0.268 | 0.299 | 0.332 | 0.368 | 0.405 | 0.446
in toluene | 0.0241 | 0.0307 | 0.0388 | 0.0491 | 0.0617 | 0.0778 | 0.0975 | 0.122 | 0.153 | 0.191
in water | 0.000141 | 0.000186 | 0.000243 | 0.000311 | 0.000394 | 0.000506 | 0.000645 | 0.000821 | 0.00105 | 0.00134

N=C(Nc1ccccc1)Nc1ccccc1
solubility (mole fraction)
Conditions | 273.15 K | 275.65 K | 278.15 K | 280.65 K | 283.15 K | 285.65 K
in acetonitrile | 0.00811 | 0.00911 | 0.0103 | 0.011 | 0.012 | 0.0131
in ethanol | 0.0139 | 0.0152 | 0.017 | 0.0191 | 0.0192 | 0.0214
in isobutanol | 0.0128 | 0.0138 | 0.0142 | 0.0166 | 0.0177 | 0.0183
in n-propanol | 0.0152 | 0.0171 | 0.0181 | 0.021 | 0.0215 | 0.0241
in toluene | 0.00134 | 0.00149 | 0.00178 | 0.00189 | 0.00219 | 0.0024

— BigSolDB 2.1
